Experimental data from patent US20210260145A1, “PHARMACEUTICAL COMPOSITION FOR ALLEVIATING EYE FATIGUE, CONTAINING, AS ACTIVE INGREDIENTS, LUTEOLIN-7-O-DIGLUCURONIDE AND APIGENIN-7-O-DIGLUCURONIDE ISOLATED FROM PERILLA FRUTESCENS (L.) BRITTON VAR. ACUTA (THUNB.) KUDO LEAF EXTRACT” (JEONNAM BIOINDUSTRY FOUNDATION, priority 2018, published 2021).

Tested on: Ciliary muscle cells (rCSMCs) isolated from rat's eyes
Assay: cGMP content in rat ciliary muscle cells, isolated compounds (ELISA)
Type: cell-based
Conditions: compounds 0.01, 0.05, 0.1, 1 μg/mL, 15 minutes
Protocol: Ciliary muscle cells ([…]) isolated from rat's eyes were dispensed into 6 wells at 5×10^5 cells/well and stabilized for one day. After stabilization, 3-isobuytyl-1-methylxanthine (1 mM) was pre-treated for 10 minutes, and then luteolin-7-O-diglucuronide and apigenin-7-O-diglucuronide compounds isolated from the Perilla frutescens (L.) Britton var. acuta (Thunb.) Kudo leaf extract were reacted for 15 minutes at concentrations of 0.01, 0.05, 0.1, and 1 μg/mL. The cGMP contents of these compounds were measured using an ELISA kit.

Compound | cGMP content
O=C(O)[C@H]1O[C@@H](O[C@H]2[C@H](Oc3cc(O)c4c(=O)cc(-c5ccc(O)cc5)oc4c3)O[C@H](C(=O)O)[C@@H](O)[C@@H]2O)[C@H](O)[C@@H](O)[C@@H]1O [apigenin-7-O-diglucuronide] | increasing the cGMP content
luteolin-7-O-diglucuronide | increasing the cGMP content
